From ChEMBL document CHEMBL3817786, “An Unusual Natural Product Primary Sulfonamide: Synthesis, Carbonic Anhydrase Inhibition, and Protein X-ray Structures of Psammaplin C” (J Med Chem, 2016)

Key:
Carbonic anhydrase 14 = Carbonic anhydrase 14 (Homo sapiens, UniProt Q9ULX7); assay: Inhibition of human recombinant carbonic anhydrase 14 expressed in Escherichia coli BL21 (DE3) by stopped-flow CO2 hydration assay
Carbonic anhydrase 6 = Carbonic anhydrase 6 (Homo sapiens, UniProt P23280); assay: Inhibition of human recombinant carbonic anhydrase 6 expressed in Escherichia coli BL21 (DE3) by stopped-flow CO2 hydration assay
Carbonic anhydrase 7 = Carbonic anhydrase 7 (Homo sapiens, UniProt P43166); assay: Inhibition of human recombinant carbonic anhydrase 7 expressed in Escherichia coli BL21 (DE3) by stopped-flow CO2 hydration assay
[1] = target: Carbonic anhydrase 5A, mitochondrial (Homo sapiens, UniProt P35218); assay: Inhibition of human recombinant carbonic anhydrase 5A expressed in Escherichia coli BL21 (DE3) by stopped-flow CO2 hydration assay
Carbonic anhydrase 4 = Carbonic anhydrase 4 (Homo sapiens, UniProt P22748); assay: Inhibition of human recombinant carbonic anhydrase 4 expressed in Escherichia coli BL21 (DE3) by stopped-flow CO2 hydration assay
Carbonic anhydrase 13 = Carbonic anhydrase 13 (Homo sapiens, UniProt Q8N1Q1); assay: Inhibition of human recombinant carbonic anhydrase 13 expressed in Escherichia coli BL21 (DE3) by stopped-flow CO2 hydration assay
Sequence of Carbonic anhydrase 13 (Q8N1Q1 whole entry): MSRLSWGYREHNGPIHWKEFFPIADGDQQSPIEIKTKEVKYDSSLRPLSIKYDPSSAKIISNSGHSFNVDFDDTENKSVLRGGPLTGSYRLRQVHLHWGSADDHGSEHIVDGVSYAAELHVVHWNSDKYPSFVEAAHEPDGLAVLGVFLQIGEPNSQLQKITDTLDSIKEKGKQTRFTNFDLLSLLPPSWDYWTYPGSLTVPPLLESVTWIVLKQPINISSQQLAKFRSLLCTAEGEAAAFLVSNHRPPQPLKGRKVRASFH

Sequence of Carbonic anhydrase 6 (P23280 whole entry): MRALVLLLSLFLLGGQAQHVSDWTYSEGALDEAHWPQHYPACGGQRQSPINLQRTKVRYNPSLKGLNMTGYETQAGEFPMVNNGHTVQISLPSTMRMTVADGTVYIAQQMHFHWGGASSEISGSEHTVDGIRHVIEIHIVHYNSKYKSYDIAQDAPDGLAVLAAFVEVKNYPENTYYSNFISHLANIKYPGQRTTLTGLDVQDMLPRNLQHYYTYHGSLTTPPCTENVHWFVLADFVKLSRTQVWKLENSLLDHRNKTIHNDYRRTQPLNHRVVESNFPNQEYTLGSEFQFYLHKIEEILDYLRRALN
Sequence of Carbonic anhydrase 14 (Q9ULX7 whole entry): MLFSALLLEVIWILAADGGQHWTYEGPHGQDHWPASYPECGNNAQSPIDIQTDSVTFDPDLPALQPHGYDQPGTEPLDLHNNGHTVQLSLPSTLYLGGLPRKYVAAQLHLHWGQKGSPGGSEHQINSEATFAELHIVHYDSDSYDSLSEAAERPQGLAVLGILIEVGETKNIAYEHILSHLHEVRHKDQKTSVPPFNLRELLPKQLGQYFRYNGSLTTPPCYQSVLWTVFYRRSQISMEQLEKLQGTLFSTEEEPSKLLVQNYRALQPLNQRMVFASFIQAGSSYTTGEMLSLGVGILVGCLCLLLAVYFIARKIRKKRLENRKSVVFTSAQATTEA
Sequence of Carbonic anhydrase 5A, mitochondrial (P35218 whole entry): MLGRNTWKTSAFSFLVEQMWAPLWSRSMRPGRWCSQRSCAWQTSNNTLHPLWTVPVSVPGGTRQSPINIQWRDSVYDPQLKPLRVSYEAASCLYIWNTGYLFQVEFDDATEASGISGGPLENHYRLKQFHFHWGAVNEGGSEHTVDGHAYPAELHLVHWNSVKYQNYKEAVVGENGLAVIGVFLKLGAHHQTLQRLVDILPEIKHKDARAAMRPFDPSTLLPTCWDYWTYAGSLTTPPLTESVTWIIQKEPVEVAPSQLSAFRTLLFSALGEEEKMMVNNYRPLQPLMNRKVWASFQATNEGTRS
Sequence of Carbonic anhydrase 7 (P43166 whole entry): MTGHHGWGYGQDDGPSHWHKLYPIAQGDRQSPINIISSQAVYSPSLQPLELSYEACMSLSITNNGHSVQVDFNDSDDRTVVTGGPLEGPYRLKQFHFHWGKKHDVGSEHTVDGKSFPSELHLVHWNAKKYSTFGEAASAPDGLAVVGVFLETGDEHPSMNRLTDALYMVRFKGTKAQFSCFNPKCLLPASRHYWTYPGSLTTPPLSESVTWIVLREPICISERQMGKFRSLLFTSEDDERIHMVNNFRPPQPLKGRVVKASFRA
Sequence of Carbonic anhydrase 4 (P22748 whole entry): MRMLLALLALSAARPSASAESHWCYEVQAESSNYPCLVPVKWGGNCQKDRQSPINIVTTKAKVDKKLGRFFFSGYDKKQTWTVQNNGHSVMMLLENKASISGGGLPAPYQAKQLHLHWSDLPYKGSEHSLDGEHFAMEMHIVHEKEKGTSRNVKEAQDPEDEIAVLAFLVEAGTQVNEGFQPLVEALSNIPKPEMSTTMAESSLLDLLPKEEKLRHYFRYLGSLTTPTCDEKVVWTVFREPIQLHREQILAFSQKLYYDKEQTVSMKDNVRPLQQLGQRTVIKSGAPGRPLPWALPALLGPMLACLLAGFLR

Ki (Carbonic anhydrase 14): 379 nM
Ki (Carbonic anhydrase 6): 9680 nM
Ki (Carbonic anhydrase 7): 1.7 nM
Ki [1]: 154 nM
Ki (Carbonic anhydrase 4): 75.3 nM
Ki (Carbonic anhydrase 13): 10600 nM
SMILES: NS(=O)(=O)CCNC(=O)/C(Cc1ccc(O)c(Br)c1)=N/O
